According to US8829007B2 (priority 2009, dated 2014):
Counter-ions that a name gives are not always drawn. Like-named read-outs stand apart in the source and are kept apart here.

Tests used:
[1] = test system: influenza A virus (A/PR/8/34); assay: microbe, parasite or virus in culture; format: cell-based
[2] = test system: A/PR/8/34 influenza virus; assay: microbe, parasite or virus in culture; format: cell-based
[3] = mean all, A/PR/8/34 influenza virus in MDCK cells, bDNA assay, read-out: EC50
[4] = Influenza A virus, PR/8, MDCK, mean all, A/PR/8/34 infected MDCK cells, CPE assay, read-out: IC50
[5] = Influenza A virus, PR/8, MDCK, mean all, A/PR/8/34 influenza virus in MDCK cells, bDNA assay, read-out: EC50
[6] = Influenza A virus, PR/8, MDCK, CPE assay, A/PR/8/34 infected MDCK cells, class symbols, read-out: IC50 (mean all)
[7] = Influenza A virus, PR/8, MDCK, bDNA assay, A/PR/8/34 influenza virus replication in MDCK cells, class symbols, read-out: EC50 (mean all)
[8] = mean all, MDCK cells infected with A/PR/8/34, cell protection (CPE), read-out: IC50
[9] = mean all, bDNA viral RNA in MDCK cells infected with A/PR/8/34, read-out: EC50
[10] = Influenza A virus, PR/8, MDCK, MDCK cells infected with A/PR/8/34, cell protection (CPE), read-out: IC50 (mean all)
[11] = Influenza A virus, PR/8, MDCK, MDCK cells infected with A/PR/8/34, bDNA viral RNA, read-out: EC50 (mean all)
[12] = Influenza A virus, PR/8, MDCK, MDCK cells infected with A/PR/8/34, survival of infected cells, class symbols, read-out: IC50 (mean all)
[13] = Influenza A virus, PR/8, MDCK, MDCK cells infected with A/PR/8/34, replication of influenza virus (viral RNA, bDNA), class symbols, read-out: EC50 (mean all)
[14] = Influenza A virus, PR/8, MDCK, read-out: IC50 (mean all)
[15] = Influenza A virus, PR/8, MDCK, read-out: EC50 (mean all)

For “N-[cis-2-[[5-fluoro-2-(1H-pyrrolo[2,3-b]pyridin-3-yl)pyrimidin-4-yl]amino]cyclohexyl]methanesulfonamide [Compound 337]”, the IC50 ([1]; read-out: IC50) was 5 to 20 µM and the EC50 [2, 3] was < 5 µM.
CC1(C(=O)N2CCC[C@H](Nc3nc(-c4c[nH]c5ncc(Cl)cc45)ncc3F)C2)COC1 [Compound 444] was tested, and the IC50 [1, 4] was < 5 µM and the EC50 [2, 5] was < 5 µM.
O=C(N[C@@H]1CCC[C@H](Nc2nc(-c3c[nH]c4ncc(Cl)cc34)ncc2F)C1)C1CNCCO1 (stereo partly drawn) [Compound 637, N-[(1R,3S)-3-[[2-(5-chloro-1H-pyrrolo[2,3-b]pyridin-3-yl)-5-fluoro-pyrimidin-4-yl]amino]cyclohexyl]morpholine-2-carboxamide bishydrochloride] was tested, and the IC50 [1, 6] was < 5 µM and the EC50 [2, 7] was < 5 µM.
COC(=O)NC1CCCC(Nc2nc(-c3c[nH]c4ncc(Cl)cc34)nc(C(C)(C)O)c2F)C1 (centres unmarked) [Compound 716] was tested, and the IC50 [1, 8] was < 5 µM and the EC50 [2, 9] was < 5 µM.
For O=C(c1ccco1)N1CCC[C@H](CNc2nc(-c3c[nH]c4ncc(Cl)cc34)ncc2F)C1 [Compound 102, (R)-(3-((2-(5-chloro-1H-pyrrolo[2,3-b]pyridin-3-yl)-5-fluoropyrimidin-4-ylamino)methyl)piperidin-1-yl)(furan-2-yl)methanone], the IC50 [1, 10] was < 5 µM and the EC50 [2, 11] was < 5 µM.
For COC(=O)N1CCOCC1CNc1nc(-c2c[nH]c3ncc(Cl)cc23)ncc1F (centres unmarked) [Compound 526, Methyl 3-((2-(5-chloro-1H-pyrrolo[2,3-b]pyridin-3-yl)-5-fluoropyrimidin-4-ylamino)methyl)morpholine-4-carboxylate], the IC50 [1, 12] was 5 to 20 µM and the EC50 [2, 13] was < 5 µM.
COC(=O)c1cnc2[nH]cc(-c3ncc(F)c(NC4CCCN(CC(N)=O)C4)n3)c2c1 (centres unmarked) [Compound 675] was tested, and the IC50 [1, 8] was > 10 µM and the EC50 [2, 9] was > 3.3 µM.
With O=C(CCc1ccccc1)N1CCCC[C@@H]1CNc1nc(-c2c[nH]c3ncc(Cl)cc23)ncc1F [Compound 293, (R)-1-(2-((2-(5-chloro-1H-pyrrolo[2,3-b]pyridin-3-yl)-5-fluoropyrimidin-4-ylamino)methyl)piperidin-1-yl)-3-phenylpropan-1-one] the IC50 [1, 10] was < 5 µM and the EC50 [2, 11] was < 5 µM.
With CNC(=O)C(C)(C)N1CCC[C@H](Nc2nc(-c3c[nH]c4ncc(Cl)cc34)ncc2F)C1 [Compound 599] the IC50 [1, 6] was < 5 µM and the EC50 [2, 7] was < 5 µM.
CC(C)(O)c1nc(-c2c[nH]c3ncc(Cl)cc23)nc(NC2CCCCC2C(=O)O)c1F (centres unmarked) [Compound 673] was tested, and the IC50 [1, 8] was < 5 µM and the EC50 [2, 9] was < 5 µM.
In the case of O=C(c1cc(F)cc(F)c1)N1CCC[C@H](CNc2nc(-c3c[nH]c4ncc(Cl)cc34)ncc2F)C1 [Compound 86, (R)-(3-((2-(5-chloro-1H-pyrrolo[2,3-b]pyridin-3-yl)-5-fluoropyrimidin-4-ylamino)methyl)piperidin-1-yl)(3,5-difluorophenyl)methanone], the IC50 [1, 10] is reported as < 5 µM and the EC50 [2, 11] is reported as < 5 µM.
For COc1cccc(NC(=O)N2CCC[C@H](CNc3nc(-c4c[nH]c5ncc(Cl)cc45)ncc3F)C2)c1 [Compound 76, (R)-3-((2-(5-chloro-1H-pyrrolo[2,3-b]pyridin-3-yl)-5-fluoropyrimidin-4-ylamino)methyl)-N-(3-methoxyphenyl)piperidine-1-carboxamide], the IC50 [1, 10] was < 5 µM and the EC50 [2, 11] was < 5 µM.
With O=C(N[C@@H]1CCC[C@H](Nc2nc(-c3c[nH]c4ncc(Cl)cc34)ncc2F)C1)C1CCNCC1 [Compound 639, N-[(1R,3S)-3-[[2-(5-chloro-1H-pyrrolo[2,3-b]pyridin-3-yl)-5-fluoro-pyrimidin-4-yl]amino]cyclohexyl]piperidine-4-carboxamide bishydrochloride] the IC50 [1, 14] was > 10 µM and the EC50 [2, 15] was > 3.3 µM.
In the case of O=C(c1ccc(Cl)cc1Cl)N1CCC[C@H](CNc2nc(-c3c[nH]c4ncc(Cl)cc34)ncc2F)C1 [Compound 147, (R)-(3-((2-(5-chloro-1H-pyrrolo[2,3-b]pyridin-3-yl)-5-fluoropyrimidin-4-ylamino)methyl)piperidin-1-yl)(2,4-dichlorophenyl)methanone], the IC50 [1, 10] is reported as < 5 µM and the EC50 [2, 11] is reported as < 5 µM.
For CC(O)C(=O)N[C@@H]1CCC[C@H](Nc2nc(-c3c[nH]c4ncc(Cl)cc34)ncc2F)C1 (stereo partly drawn) [Compound 642, N-[(1R,3S)-3-[[2-(5-chloro-1H-pyrrolo[2,3-b]pyridin-3-yl)-5-fluoro-pyrimidin-4-yl]amino]cyclohexyl]-2-hydroxy-propanamide hydrochloride], the IC50 [1, 6] was < 5 µM and the EC50 [2, 7] was < 5 µM.
With Cc1cccc(NC(=O)N2CCC[C@H](CNc3nc(-c4c[nH]c5ncc(Cl)cc45)ncc3F)C2)c1 [Compound 78, (R)-3-((2-(5-chloro-1H-pyrrolo[2,3-b]pyridin-3-yl)-5-fluoropyrimidin-4-ylamino)methyl)-N-m-tolylpiperidine-1-carboxamide] the IC50 [1, 10] was < 5 µM and the EC50 [2, 11] was < 5 µM.
For O[C@H]1[C@@H](Nc2nc(-c3c[nH]c4ncc(Cl)cc34)ncc2F)CCC[C@@H]1O [Compound 615], the IC50 [1, 6] was < 5 µM and the EC50 [2, 7] was < 5 µM.
With “1-[(1S,2S)-2-[[2-(5-chloro-1H-pyrrolo[2,3-b]pyridin-3-yl)-5-fluoro-pyrimidin-4-yl]amino]cyclohexyl]-3-methyl-urea [Compound 426]” the IC50 ([1]; read-out: IC50) was < 5 µM and the EC50 [2, 3] was < 5 µM.
With OC[C@@H](O)CN1CCCC(Nc2nc(-c3c[nH]c4ncc(Cl)cc34)ncc2F)C1 (some centres unmarked) [Compound 587] the IC50 [1, 12] was < 5 µM and the EC50 [2, 13] was < 5 µM.
With COc1c(F)cnc2[nH]cc(-c3ncc(F)c(N[C@H]4CCC[C@@H](NC(=O)N5CC[C@@H](F)C5)C4)n3)c12 [Compound 1104, (R)-3-fluoro-N-((1R,3S)-3-((5-fluoro-2-(5-fluoro-4-methoxy-1H-pyrrolo[2,3-b]pyridin-3-yl)pyrimidin-4-yl)amino)cyclohexyl)pyrrolidine-1-carboxamide] the IC50 ([1]; Influenza A virus, PR/8, MDCK, MDCK cells, A/PR/8/34, ATP readout, mean all, read-out: Cell Flu, MDCK protection, ATP (All: IC50: uM)(Mean (All))) was < 5 µM and the EC50 ([2]; Influenza A virus, PR/8, 30 h, HA(−) 30 hr, A/PR/8, bDNA, mean all, read-out: Cell Influenza HA(−) 30 hr A/PR/8 bDNA:bDNA EC50 uM(Mean (All))) was < 5 µM.
For CC(C)CC(=O)N1CCC[C@@H](Nc2nc(-c3c[nH]c4ncc(Cl)cc34)ncc2F)C1 [Compound 318], the IC50 [1, 4] was > 20 µM and the EC50 [2, 5] was < 5 µM.
With CC(C)=CC(=O)N1CCC[C@H](CNc2nc(-c3c[nH]c4ncc(Cl)cc34)ncc2F)C1 [Compound 57, (R)-1-(3-((2-(5-chloro-1H-pyrrolo[2,3-b]pyridin-3-yl)-5-fluoropyrimidin-4-ylamino)methyl)piperidin-1-yl)-3-methylbut-2-en-1-one] the IC50 [1, 14] was < 5 µM and the EC50 [2, 15] was < 5 µM.
With CC(C)(C)c1nc(-c2c[nH]c3ncc(Cl)cc23)nc(NC2CCCCC2(C)C(=O)O)c1F (centres unmarked) [Compound 691] the IC50 [1, 8] was < 5 µM and the EC50 [2, 9] was < 5 µM.
For CNc1ccccc1C(=O)N1CCC[C@H](CNc2nc(-c3c[nH]c4ncc(Cl)cc34)ncc2F)C1 [Compound 112, (R)-(3-((2-(5-chloro-1H-pyrrolo[2,3-b]pyridin-3-yl)-5-fluoropyrimidin-4-ylamino)methyl)piperidin-1-yl)(2-(methylamino)phenyl)methanone], the IC50 [1, 10] was < 5 µM and the EC50 [2, 11] was < 5 µM.
O=C(Nc1ccsc1)N1CCC[C@@H](CNc2nc(-c3c[nH]c4ncc(Cl)cc34)ncc2F)C1 [Compound 22, (S)-3-((2-(5-chloro-1H-pyrrolo[2,3-b]pyridin-3-yl)-5-fluoropyrimidin-4-ylamino)methyl)-N-(thiophen-3-yl)piperidine-1-carboxamide] was tested, and the IC50 [1, 10] was < 5 µM and the EC50 [2, 11] was < 5 µM.
For Cc1cc(NC(=O)N2CCC[C@H](CNc3nc(-c4c[nH]c5ncc(Cl)cc45)ncc3F)C2)c(C(F)(F)F)o1 [Compound 120, (R)-3-((2-(5-chloro-1H-pyrrolo[2,3-b]pyridin-3-yl)-5-fluoropyrimidin-4-ylamino)methyl)-N-(5-methyl-2-(trifluoromethyl)furan-3-yl)piperidine-1-carboxamide], the IC50 [1, 10] was < 5 µM and the EC50 [2, 11] was < 5 µM.
CC(=O)N1CCC(Nc2nc(-c3c[nH]c4ncc(Cl)cc34)ncc2F)C(C(=O)O)C1 (centres unmarked) [Compound 607] was tested, and the IC50 ([1]; CPE assay, A/PR/8/34 infected MDCK cells, class symbols, read-out: IC50 (mean all)) was > 10 µM and the EC50 ([2]; bDNA assay, A/PR/8/34 influenza virus replication in MDCK cells, class symbols, read-out: EC50 (mean all)) was > 3.3 µM.
CC(C)NC(=O)N1CCC[C@H](Nc2nc(-c3c[nH]c4ncc(Cl)cc34)ncc2F)C1 [Compound 439] was tested, and the IC50 [1, 4] was < 5 µM and the EC50 [2, 5] was < 5 µM.
CNC(=O)C[C@]1(O)CCCC(Nc2nc(-c3c[nH]c4ncc(Cl)cc34)ncc2F)C1 (some centres unmarked) [Compound 751] was tested, and the IC50 ([1]; Influenza A virus, PR/8, MDCK, mean all, MDCK cells infected with A/PR/8/34, cell protection (CPE), read-out: IC50) was < 5 µM and the EC50 ([2]; Influenza A virus, PR/8, MDCK, mean all, bDNA viral RNA in MDCK cells infected with A/PR/8/34, read-out: EC50) was < 5 µM.
With O=S(=O)(c1ccccc1F)N1CCC[C@H](CNc2nc(-c3c[nH]c4ncc(Cl)cc34)ncc2F)C1 [Compound 90, (R)-2-(5-chloro-1H-pyrrolo[2,3-b]pyridin-3-yl)-5-fluoro-N-((1-(2-fluorophenylsulfonyl)piperidin-3-yl)methyl)pyrimidin-4-amine] the IC50 [1, 10] was < 5 µM and the EC50 [2, 11] was < 5 µM.
With CN1CCC(Nc2nc(-c3c[nH]c4ncc(Cl)cc34)ncc2F)C1=O (centres unmarked) [Compound 379] the IC50 [1, 4] was 5 to 20 µM and the EC50 [2, 5] was < 5 µM.
